In patent US20080009418A1, “Selective Inhibitors” (Alchemia LTD., priority 2004, published 2008):

Columns and labels:
Human δ-opioid (DOP) = target: T1, Human δ-opioid (DOP) (Homo sapiens, UniProt P41143); experiment: Radioligand binding, human δ-opioid (DOP) membranes, FlashPlate, [3H]-Bremazocine; conditions: compound at 10 μM, [3H]-Bremazocine
T1 construct: purchased Perkin Elmer Biosignal
Outline: (§1)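 Cloned human receptor membranes were coated onto FlashPlate wells and incubated with radioligand and compound (added from a 0.5 mM DMSO daughter plate) for 1 hour at room temperature in the dark. Scintillation counting gave percent inhibition, with DMSO defining total and reference ligand defining non-specific binding.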

Human κ-Opioid (KOP) = target: T2, Human κ-Opioid (KOP) (Homo sapiens, UniProt P41145); experiment: Radioligand binding, human κ-opioid (KOP) membranes, filtration, [3H]-Diprenorphine; conditions: compound at 10 μM, [3H]-Diprenorphine
T2 construct: purchased Perkin Elmer Biosignal
Outline: (§2)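 Filtration binding on cloned human receptor membranes (1 Unit/well), [125I]-Substance P for NK1 and [3H]-Diprenorphine for KOP, 1 h at room temperature. Filters PEI-presoaked, washed with cold 50 mM Tris-HCl pH 7.4, counted by scintillation; percent inhibition calculated, reference ligand defining non-specific binding.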

Human Melanocortin (MC3) = target: T3, Human Melanocortin (MC3) (Homo sapiens, UniProt P41968); experiment: Radioligand binding, human melanocortin MC3 membranes, FlashPlate, [125I]-NDP-αMSH; conditions: compound at 10 μM, [125I]-NDP-αMSH
T3 construct: purchased Perkin Elmer Biosignal
Outline: as §1

Human Melanocortin (MC4) = target: T4, Human Melanocortin (MC4) (Homo sapiens, UniProt P32245); experiment: Radioligand binding, human melanocortin MC4 membranes, FlashPlate, [125I]-NDP-αMSH; conditions: compound at 10 μM, [125I]-NDP-αMSH
T4 construct: purchased Perkin Elmer Biosignal
Outline: as §1

Human melanocortin (MC5) = target: T5, Human melanocortin (MC5) (Homo sapiens, UniProt P33032); experiment: Radioligand binding, human melanocortin MC5 membranes, FlashPlate, [125I]-NDP-αMSH; conditions: compound at 10 μM, [125I]-NDP-αMSH
T5 construct: purchased Perkin Elmer Biosignal
Outline: as §1

[1] = target: T6, Human melanin-concentrating hormone (MCH1) (Homo sapiens, UniProt Q99705); experiment: Radioligand binding, human melanin-concentrating hormone MCH1 membranes, FlashPlate, [125I]-S36057; conditions: compound at 10 μM
T6 construct: purchased Perkin Elmer Biosignal
Outline: as §1

Human μ-opioid (MOP) = target: T7, Human μ-opioid (MOP) (Homo sapiens, UniProt P35372); experiment: Radioligand binding, human μ-opioid (MOP) membranes, FlashPlate, [3H]-Naloxone; conditions: compound at 10 μM, [3H]-Naloxone
T7 construct: purchased Perkin Elmer Biosignal
Outline: as §1

Human neurokinin (NK1) = target: T8, Human neurokinin (NK1) (Homo sapiens, UniProt P25103); experiment: Radioligand binding, human neurokinin NK1 membranes, filtration, [125I]-Substance P; conditions: compound at 10 μM, [125I]-Substance P
T8 construct: purchased Perkin Elmer Biosignal
Outline: as §2

[2] = target: T9, Human neuropeptide Y (NPY-Y1) (Homo sapiens, UniProt P25929); experiment: Radioligand binding, human neuropeptide Y NPY-Y1 membranes, FlashPlate, [125I]-PYY; conditions: compound at 10 μM, [125I]-PYY
T9 construct: purchased Perkin Elmer Biosignal
T9 sequence (P25929 1-384): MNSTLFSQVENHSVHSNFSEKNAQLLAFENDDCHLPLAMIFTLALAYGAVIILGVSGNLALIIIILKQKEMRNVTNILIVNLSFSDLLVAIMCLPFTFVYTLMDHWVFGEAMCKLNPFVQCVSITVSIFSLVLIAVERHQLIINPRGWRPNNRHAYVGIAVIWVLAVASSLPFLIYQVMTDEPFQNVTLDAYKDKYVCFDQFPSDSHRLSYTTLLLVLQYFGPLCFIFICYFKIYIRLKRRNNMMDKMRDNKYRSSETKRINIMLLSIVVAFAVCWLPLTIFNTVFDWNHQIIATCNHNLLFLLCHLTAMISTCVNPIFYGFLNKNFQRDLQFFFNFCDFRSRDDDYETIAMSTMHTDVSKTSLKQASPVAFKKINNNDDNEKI
Outline: as §1

Human opioid (ORL1) = target: T10, Human opioid (ORL1) (Homo sapiens, UniProt P41146); experiment: Radioligand binding, human opioid ORL1 membranes, FlashPlate, [125I]-Nociceptin; conditions: compound at 10 μM, [125I]-Nociceptin
T10 construct: purchased Perkin Elmer Biosignal
Outline: as §1

Mouse urotensin (mUR2) = target: T11, Mouse urotensin (mUR2) (Mus musculus, UniProt Q8VIH9); experiment: Radioligand binding, mouse urotensin mUR2 membranes, FlashPlate, [125I]-Urotensin II; conditions: compound at 10 μM, [125I]-Urotensin II
T11 construct: purchased Perkin Elmer Biosignal
T11 sequence (Q8VIH9 1-385): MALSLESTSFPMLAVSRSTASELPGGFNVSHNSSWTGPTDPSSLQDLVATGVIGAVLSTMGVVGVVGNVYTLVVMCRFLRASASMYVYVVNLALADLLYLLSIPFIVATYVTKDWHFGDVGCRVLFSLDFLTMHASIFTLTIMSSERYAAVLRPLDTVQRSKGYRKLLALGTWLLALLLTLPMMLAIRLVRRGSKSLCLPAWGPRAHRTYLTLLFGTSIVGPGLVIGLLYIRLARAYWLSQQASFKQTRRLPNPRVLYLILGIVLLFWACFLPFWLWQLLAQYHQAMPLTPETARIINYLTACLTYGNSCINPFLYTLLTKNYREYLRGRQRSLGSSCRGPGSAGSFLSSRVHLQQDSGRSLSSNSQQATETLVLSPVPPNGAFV
Outline: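 Cloned mouse urotensin (mUR2) receptor membranes from Perkin Elmer Biosignal were immobilized in FlashPlate microplates using a proprietary coating. Each well got 19.5 μl buffer, then 0.5 μl of DMSO, reference ligand, or compound. Adding 5 μl of [125I]-Urotensin II, diluted to 5× final concentration in binding buffer, started binding. Plates were sealed with TopSeal-A and incubated 1 hour at room temperature in the dark. Wells were counted for 30 seconds each on a TopCount after a 60-second delay, and percentage inhibition was calculated.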

T8 sequence (P25103 whole entry): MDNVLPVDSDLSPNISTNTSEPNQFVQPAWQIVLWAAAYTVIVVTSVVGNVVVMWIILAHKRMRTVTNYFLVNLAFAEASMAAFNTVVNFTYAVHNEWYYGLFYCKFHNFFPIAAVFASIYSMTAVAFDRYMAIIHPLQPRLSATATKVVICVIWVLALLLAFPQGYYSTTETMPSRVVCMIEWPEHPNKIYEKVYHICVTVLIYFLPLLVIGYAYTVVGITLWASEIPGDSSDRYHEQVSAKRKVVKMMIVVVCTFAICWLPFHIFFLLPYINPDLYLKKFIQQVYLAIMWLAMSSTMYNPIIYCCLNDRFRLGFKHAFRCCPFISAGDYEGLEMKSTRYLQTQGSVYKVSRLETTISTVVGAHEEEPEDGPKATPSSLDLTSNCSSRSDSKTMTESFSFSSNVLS
T3 sequence (P41968 whole entry): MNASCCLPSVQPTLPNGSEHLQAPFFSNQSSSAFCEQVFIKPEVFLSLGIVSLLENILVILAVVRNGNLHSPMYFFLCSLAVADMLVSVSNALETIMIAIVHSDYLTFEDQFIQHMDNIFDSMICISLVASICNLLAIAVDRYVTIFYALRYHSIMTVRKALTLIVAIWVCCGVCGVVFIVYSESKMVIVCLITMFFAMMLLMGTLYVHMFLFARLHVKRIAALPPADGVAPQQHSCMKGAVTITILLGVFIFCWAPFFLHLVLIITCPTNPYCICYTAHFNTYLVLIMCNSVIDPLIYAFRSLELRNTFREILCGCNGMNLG
T6 sequence (Q99705 whole entry): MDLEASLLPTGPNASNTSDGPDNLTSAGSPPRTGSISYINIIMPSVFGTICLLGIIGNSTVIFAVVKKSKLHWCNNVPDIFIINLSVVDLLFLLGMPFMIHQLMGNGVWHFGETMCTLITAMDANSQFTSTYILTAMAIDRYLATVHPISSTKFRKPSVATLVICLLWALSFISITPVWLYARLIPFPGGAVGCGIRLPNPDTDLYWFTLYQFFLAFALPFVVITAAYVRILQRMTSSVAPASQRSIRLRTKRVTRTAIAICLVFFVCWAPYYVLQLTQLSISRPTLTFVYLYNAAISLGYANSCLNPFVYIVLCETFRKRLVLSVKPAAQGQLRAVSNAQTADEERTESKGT
T4 sequence (P32245 whole entry): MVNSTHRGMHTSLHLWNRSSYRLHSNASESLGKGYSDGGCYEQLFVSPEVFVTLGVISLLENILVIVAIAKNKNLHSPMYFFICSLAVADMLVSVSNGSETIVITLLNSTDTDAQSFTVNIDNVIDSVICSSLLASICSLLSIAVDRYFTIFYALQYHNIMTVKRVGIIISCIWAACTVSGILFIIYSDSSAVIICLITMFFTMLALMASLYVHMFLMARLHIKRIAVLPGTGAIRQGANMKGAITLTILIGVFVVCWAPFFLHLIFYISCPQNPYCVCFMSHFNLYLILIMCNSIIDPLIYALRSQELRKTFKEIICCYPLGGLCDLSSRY
T5 sequence (P33032 whole entry): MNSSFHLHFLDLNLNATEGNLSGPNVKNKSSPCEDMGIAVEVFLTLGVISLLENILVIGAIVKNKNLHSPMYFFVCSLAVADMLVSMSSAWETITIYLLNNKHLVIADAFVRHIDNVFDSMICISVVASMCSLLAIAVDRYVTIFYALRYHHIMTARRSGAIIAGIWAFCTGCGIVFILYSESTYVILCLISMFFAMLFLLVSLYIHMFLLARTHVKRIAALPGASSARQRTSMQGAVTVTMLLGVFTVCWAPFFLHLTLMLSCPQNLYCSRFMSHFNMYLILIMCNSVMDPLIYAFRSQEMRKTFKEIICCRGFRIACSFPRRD
T7 sequence (P35372 whole entry): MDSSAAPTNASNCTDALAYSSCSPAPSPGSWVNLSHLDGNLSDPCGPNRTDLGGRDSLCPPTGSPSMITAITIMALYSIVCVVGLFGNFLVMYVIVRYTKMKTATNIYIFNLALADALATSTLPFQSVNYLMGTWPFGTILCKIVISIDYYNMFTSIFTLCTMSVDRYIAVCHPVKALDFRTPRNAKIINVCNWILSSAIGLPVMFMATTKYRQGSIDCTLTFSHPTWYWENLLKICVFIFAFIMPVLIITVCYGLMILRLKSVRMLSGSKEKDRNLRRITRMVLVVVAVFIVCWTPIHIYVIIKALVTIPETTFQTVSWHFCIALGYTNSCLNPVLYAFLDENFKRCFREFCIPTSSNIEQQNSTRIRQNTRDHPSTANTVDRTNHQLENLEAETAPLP
T10 sequence (P41146 whole entry): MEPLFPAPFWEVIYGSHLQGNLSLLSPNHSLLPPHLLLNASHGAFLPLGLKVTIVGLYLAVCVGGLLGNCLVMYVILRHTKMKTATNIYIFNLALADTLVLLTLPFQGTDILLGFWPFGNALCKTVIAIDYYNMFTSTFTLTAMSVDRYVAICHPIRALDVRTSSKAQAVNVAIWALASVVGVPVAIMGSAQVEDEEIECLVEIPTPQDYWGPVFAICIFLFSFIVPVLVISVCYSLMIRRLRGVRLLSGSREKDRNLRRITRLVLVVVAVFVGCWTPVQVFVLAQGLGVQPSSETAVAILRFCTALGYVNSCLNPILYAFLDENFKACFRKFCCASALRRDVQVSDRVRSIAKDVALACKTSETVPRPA
T2 sequence (P41145 whole entry): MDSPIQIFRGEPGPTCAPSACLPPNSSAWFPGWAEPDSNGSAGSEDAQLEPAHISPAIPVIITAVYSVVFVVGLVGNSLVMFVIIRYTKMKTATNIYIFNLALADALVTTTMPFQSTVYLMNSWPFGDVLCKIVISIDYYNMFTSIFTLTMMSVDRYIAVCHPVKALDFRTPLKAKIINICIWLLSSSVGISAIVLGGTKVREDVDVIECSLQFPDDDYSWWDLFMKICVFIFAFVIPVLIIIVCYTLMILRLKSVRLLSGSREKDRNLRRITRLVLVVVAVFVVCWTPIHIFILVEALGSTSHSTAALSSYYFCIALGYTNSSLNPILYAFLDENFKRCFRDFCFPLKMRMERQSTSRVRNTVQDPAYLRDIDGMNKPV
T1 sequence (P41143 whole entry): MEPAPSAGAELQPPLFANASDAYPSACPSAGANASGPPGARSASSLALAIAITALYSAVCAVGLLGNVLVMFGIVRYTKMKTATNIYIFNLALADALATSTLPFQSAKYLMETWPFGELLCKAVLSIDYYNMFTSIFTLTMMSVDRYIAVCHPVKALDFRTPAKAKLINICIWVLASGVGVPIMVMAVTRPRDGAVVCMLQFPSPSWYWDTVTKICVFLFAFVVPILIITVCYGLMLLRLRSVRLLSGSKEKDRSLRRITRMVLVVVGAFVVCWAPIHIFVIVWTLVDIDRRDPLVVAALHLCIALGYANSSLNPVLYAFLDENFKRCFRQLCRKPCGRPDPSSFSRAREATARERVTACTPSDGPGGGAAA

Structure (SMILES)	A1 radioligand binding, percentage inhibition (Human δ-opioid (DOP))	A2 radioligand binding, percentage inhibition (Human κ-Opioid (KOP))	A3 radioligand binding, percentage inhibition (Human Melanocortin (MC3))	A4 radioligand binding, percentage inhibition (Human Melanocortin (MC4))	A5 radioligand binding, percentage inhibition (Human melanocortin (MC5))	A6 radioligand binding, percentage inhibition ([1]; [125I]-S36057)	A7 radioligand binding, percentage inhibition (Human μ-opioid (MOP))	A8 radioligand binding, percentage inhibition (Human neurokinin (NK1))	A9 radioligand binding, percentage inhibition [2]	A10 radioligand binding, percentage inhibition (Human opioid (ORL1))	A11 radioligand binding, percentage inhibition (Mouse urotensin (mUR2))	further results
CO[C@H]1[C@H](O)[C@@H](COCc2ccccc2)OC(OCc2ccc(Cl)cc2)[C@@H]1NC(=O)CCCN (stereo partly drawn) [compound 103]	− (“−” indicates less than 50% inhibition at 10 μM)	− (“−” indicates less than 50% inhibition at 10 μM)	− (“−” indicates less than 50% inhibition at 10 μM)	− (“−” indicates less than 50% inhibition at 10 μM)	− (“−” indicates less than 50% inhibition at 10 μM)	− (“−” indicates less than 50% inhibition at 10 μM)	− (“−” indicates less than 50% inhibition at 10 μM)	+ (“+” indicates greater than 50% inhibition at 10 μM)	− (“−” indicates less than 50% inhibition at 10 μM)	− (“−” indicates less than 50% inhibition at 10 μM)	− (“−” indicates less than 50% inhibition at 10 μM)	
CSC1O[C@H](COCc2ccc3ccccc3c2)[C@@H](O)[C@@H](OCc2ccc(-c3ccccc3)cc2)[C@H]1NC(=O)CNC(=N)N (stereo partly drawn) [compound 296]												A1: inhibition of radioligand binding, human δ-opioid (DOP) (Human δ-opioid (DOP)): − (“−” indicates less than 50% inhibition at 10 μM); A2: inhibition of radioligand binding, human κ-opioid (KOP) (Human κ-Opioid (KOP)): − (“−” indicates less than 50% inhibition at 10 μM); A3: inhibition of radioligand binding, human melanocortin (MC3) (Human Melanocortin (MC3)): − (“−” indicates less than 50% inhibition at 10 μM); A4: inhibition of radioligand binding, human melanocortin (MC4) (Human Melanocortin (MC4)): − (“−” indicates less than 50% inhibition at 10 μM); A5: inhibition of radioligand binding, human melanocortin (MC5) (Human melanocortin (MC5)): − (“−” indicates less than 50% inhibition at 10 μM); A6: inhibition of radioligand binding, human melanin-concentrating hormone (MCH1) ([1]; [125I]-S36057): − (“−” indicates less than 50% inhibition at 10 μM); A7: inhibition of radioligand binding, human μ-opioid (MOP) (Human μ-opioid (MOP)): − (“−” indicates less than 50% inhibition at 10 μM); A8: inhibition of radioligand binding, human neurokinin (NK1) (Human neurokinin (NK1)): + (“+” indicates greater than 50% inhibition at 10 μM); A9: inhibition of radioligand binding, human neuropeptide Y (NPY-Y1) [2]: − (“−” indicates less than 50% inhibition at 10 μM); A10: inhibition of radioligand binding, human opioid (ORL1) (Human opioid (ORL1)): − (“−” indicates less than 50% inhibition at 10 μM); A11: inhibition of radioligand binding, mouse urotensin (mUR2) (Mouse urotensin (mUR2)): − (“−” indicates less than 50% inhibition at 10 μM)
CO[C@H]1[C@H](O)[C@@H](COCc2cccc(O)c2)OC(OCc2ccc3ccccc3c2)[C@@H]1NC(=O)CCNC(=N)N (stereo partly drawn) [compound 151]	− (“−” indicates less than 50% inhibition at 10 μM)	− (“−” indicates less than 50% inhibition at 10 μM)	− (“−” indicates less than 50% inhibition at 10 μM)	− (“−” indicates less than 50% inhibition at 10 μM)	− (“−” indicates less than 50% inhibition at 10 μM)	− (“−” indicates less than 50% inhibition at 10 μM)	+ (“+” indicates greater than 50% inhibition at 10 μM)	− (“−” indicates less than 50% inhibition at 10 μM)	− (“−” indicates less than 50% inhibition at 10 μM)	− (“−” indicates less than 50% inhibition at 10 μM)	− (“−” indicates less than 50% inhibition at 10 μM)	
COC[C@H]1OC(OCc2cccc(O)c2)[C@H](NC(=O)CCCNC(=N)N)[C@@H](OCc2ccc(-c3ccccc3)cc2)[C@@H]1O (stereo partly drawn) [compound 144]	− (“−” indicates less than 50% inhibition at 10 μM)	− (“−” indicates less than 50% inhibition at 10 μM)	− (“−” indicates less than 50% inhibition at 10 μM)	− (“−” indicates less than 50% inhibition at 10 μM)	+ (“+” indicates greater than 50% inhibition at 10 μM)	+ (“+” indicates greater than 50% inhibition at 10 μM)	+ (“+” indicates greater than 50% inhibition at 10 μM)	+ (“+” indicates greater than 50% inhibition at 10 μM)	− (“−” indicates less than 50% inhibition at 10 μM)	− (“−” indicates less than 50% inhibition at 10 μM)	− (“−” indicates less than 50% inhibition at 10 μM)	
CO[C@H]1[C@H](O)[C@@H](COCc2ccc3ccccc3c2)OC(OCCc2ccccc2)[C@@H]1NC(=O)CCCNC(=N)N (stereo partly drawn) [compound 116]	− (“−” indicates less than 50% inhibition at 10 μM)	− (“−” indicates less than 50% inhibition at 10 μM)	− (“−” indicates less than 50% inhibition at 10 μM)	− (“−” indicates less than 50% inhibition at 10 μM)	+ (“+” indicates greater than 50% inhibition at 10 μM)	− (“−” indicates less than 50% inhibition at 10 μM)	− (“−” indicates less than 50% inhibition at 10 μM)	+ (“+” indicates greater than 50% inhibition at 10 μM)	− (“−” indicates less than 50% inhibition at 10 μM)	− (“−” indicates less than 50% inhibition at 10 μM)	− (“−” indicates less than 50% inhibition at 10 μM)	
NCCC(=O)NC1C(OCc2ccc3ccccc3c2)OC(COCc2ccc3ccccc3c2)C(O)C1OCc1ccc(Cl)cc1 (stereo not drawn) [compound 381]												A1: inhibition of radioligand binding (Human δ-opioid (DOP); human DOP membranes): − (“−” indicates less than 50% inhibition at 10 μM); A2: inhibition of radioligand binding (Human κ-Opioid (KOP); human KOP membranes): − (“−” indicates less than 50% inhibition at 10 μM); A3: inhibition of radioligand binding (Human Melanocortin (MC3); human MC3 membranes): + (“+” indicates greater than 50% inhibition at 10 μM); A4: inhibition of radioligand binding (Human Melanocortin (MC4); human MC4 membranes): + (“+” indicates greater than 50% inhibition at 10 μM); A5: inhibition of radioligand binding (Human melanocortin (MC5); human MC5 membranes): + (“+” indicates greater than 50% inhibition at 10 μM); A6: inhibition of radioligand binding ([1]; [125I]-S36057, human MCH1 membranes): − (“−” indicates less than 50% inhibition at 10 μM); A7: inhibition of radioligand binding (Human μ-opioid (MOP); human MOP membranes): − (“−” indicates less than 50% inhibition at 10 μM); A8: inhibition of radioligand binding (Human neurokinin (NK1); human NK1 membranes): + (“+” indicates greater than 50% inhibition at 10 μM); A9: inhibition of radioligand binding ([2]; human NPY-Y1 membranes): − (“−” indicates less than 50% inhibition at 10 μM); A10: inhibition of radioligand binding (Human opioid (ORL1); human ORL1 membranes): − (“−” indicates less than 50% inhibition at 10 μM); A11: inhibition of radioligand binding (Mouse urotensin (mUR2); mouse mUR2 membranes): − (“−” indicates less than 50% inhibition at 10 μM)
